Assay results as given in patent US20230076515A1, “STIMULI THAT HYPERACTIVATE RESIDENT DENDRITIC CELLS FOR CANCER IMMUNOTHERAPY” (Children's Medical Center Corporation, priority 2019, published 2023).

How the values were obtained:
[1] = test system: T cells from skin draining lymph nodes; assay: In vivo OVA immunization and T cell re-stimulation; set-up: species or system mouse; settings: for antigen-specific tetramer+IFNγ+ T cell responses: 7 days post immunization with OVA, 7 days ex vivo re-stimulation with OVA-loaded BMDC
Method: Flow cytometry: After FcR blockade, 7 days BMDCs were resuspended in MACS buffer (PBS with 1% FCS and 2 mM EDTA), and stained with the following fluorescently conjugated antibodies (BioLegend): anti-CD11c (clone N418), anti-I-A/I-E (clone M5/114.15.2), anti-CD40 (clone 3/23), anti-CD80(16-10A1), anti-CD69 clone (H1.2F3), anti-H-2Kb (clone AF6-88.5). Single cell suspension from the tumor or draining inguinal lymph nodes, or skin inguinal adipose tissue were resuspended in MACS buffer (PBS with 1% FCS and 2 mM EDTA), and stained with the following fluorescently conjugated antibodies (BioLegend): anti-CD8α (clone 53-6.7), anti-CD4 (clone RM4-5), anti-CD44 (clone IM7), anti-CD62L (MEL-14), anti-CD3 (17A2), anti-CD103 (2E7), anti-CD69 clone (H1.2F3), anti-CD45 (A20 or 30F11). LIVE/DEAD™ Fixable Violet Dead Cell Stain Kit (Molecular probes) was used to determine the viability of cells, and cells were stained for 20 minutes in PBS at 4° C. Draining inguinal lymph nodes T cells were stained with OVA-peptide tetramers at room temperature for 1 h. PE-conjugated H2K(b) SIINFEKL (OVA 257-264; SEQ ID NO: 1) and APC conjugated I-A(b) AAHAEINEA (OVA 329-337; SEQ ID NO: 2) were used. I-A(b) and H2K(b) associated with CLIP peptides were used as isotype controls. Tetramers were purchased for NIH tetramer core facility. in some experiments, FITC anti-CD8.1 (clone Lyt-2.1 CD8-E1) purchased from accurate chemical was used with tetramers. To determine absolute number of cells, COUNTBRIGHT counting beads (Molecular probes) were used, following the manufacturer's protocol. Appropriate isotype controls were used as a staining control. Data were acquired on a BD FACS ARIA or BD Fortessa. Data were analyzed using FlowJo software.
Intracellular staining: For intracellular cytokine staining, cells were stimulated with 50 ng/ml phorbol 12-myristate 13-acetate (PMA) and 500 ng/ml ionomycin (Sigma-Aldrich) in the presence of GolgiStop (BD) and brefeldin A for 4-5 h. Cells were then washed twice with PBS, and stained with LIVE/DEAD™ Fixable violet or green Dead Cell Stain Kit (Molecular probes) in PBS for 20 min at 4° C. Cells were washed with MACS buffer, and stained for appropriate surface markers for 20 min at 4° C. After two washes, cells were fixed and permeabilized using BD Cytofix/Cytoperm kit for 20 min at 4° C., then washed with 1× perm wash buffer (BD) per manufacturer's protocol. Intracellular cytokine staining was performed in 1× perm buffer for 20-30 min at 4° C. with the following conjugated antibodies all purchased from BioLegend: anti-Ki67 (clone 16A8), anti-IFN-γ (clone XMG1.2), anti TNFα (clone MP6-XT22), anti-Gata3 (16E10A23), anti-IL4(11B11), anti-IL10 (clone JES5-16E3). Data were acquired on a BD FACS ARIA or BD Fortessa. Data were analyzed using FlowJo software.
In vivo immunization and T cell re-stimulation: Female C57BL/6J mice aged 8 weeks, were immunized subcutaneously (s.c.) on the left lower back with either 150 μg/mouse endotoxin-free OVA plus 10 μg/mouse LPS emulsified in incomplete Freund's adjuvant, or with 150 μg/mouse endotoxin-free OVA, plus 65 μg/mouse oxPAPC or PGPC, plus 10 μg/mouse LPS emulsified in incomplete Freund's adjuvant. In some experiments mice were injected s.c. with OVA alone or with LPS emulsified in Alum. 7 or 40 days after immunization, CD4^+ T cells and CD8^+ T cells were isolated from the draining lymph nodes of immunized mice by magnetic cell sorting with anti-CD4 beads or anti-CD8 beads and columns (Miltenyi Biotech). Enriched cells were then sorted as live CD45^+CD3^+CD4^+ cells or live CD45^+CD3^+CD8^+ using FACS ARIA. Purity post-sorting was >98%. Sorted cells were then seeded in 96-well plates at a concentration of 100.000 cells per well in the presence of 10-20×10^3 DC pulsed with serial dilutions of OVA, starting at 1 mg/ml. […]

[2] = test system: BMDCs; assay: BMDC stimulation, cytokine ELISA and LDH release; type: cell-based, mouse; settings: LPS alone or LPS priming 3 h then stimuli 21 h, ELISA
Method: Cell culture: BMDCs were generated by differentiating bone marrow in IMDM (Gibco), 10% B16-GM-CSF derived supernatant, 2 μM 2-mercaptoethanol, 100 U/ml penicillin, 100 μg/ml streptomycin (Sigma-Aldrich) and 10% FBS. 6 day after culture, BMDCs were washed with PBS and re-plated in IMDM with 10% FBS at a concentration of 1×10^6 cells/ml in a final volume of 100 μl. CD11c^+ DC purity was assessed by flow cytometry using BD Fortessa and was routinely above 80%. Splenic DCs from mice injected with B16-FLT3 for 15 days, were purified as CD11c^+MHC^+ live cells, then plated at a concentration of 1×10^6 cells/ml in a final volume of 100 μl in complete IMDM. To induce hyperactive or pyroptotic BMDCs, DCs were primed with LPS (1 μg/ml) for 3 hours, then stimulated with OxPAPC or PGPC (100 μg/ml) or alum (100 μg/ml) for 21 h in complete IMDM. […]
LDH Assay and ELISAs: Fresh supernatants were clarified by centrifugation after BMDC stimulation, then assayed for LDH release assay using the Pierce LDH cytotoxicity colorimetric assay kit (Life Technologies) following the manufacturer's protocol. Measurements for absorbance readings were performed on a Tecan plate reader at wavelengths of 490 nm and 680 nm. […] ELISA for IL-1β, TNFα, IL-10, IL-12p70, IFNγ, IL-2, IL-13, IL-4 and IL-17 were performed using eBioscience Ready-SET-Go! […]

[3] = test system: OT-II naïve CD4+ T cells; assay: OT-II in vitro T-cell stimulation; type: cell-based, mouse; settings: OVA-loaded BMDCs co-cultured with OT-II T cells; ELISA
Method: OT-I and OT-II in vitro T-cell stimulation: Splenic CD8^+ and CD4^+ T cells were sorted from OT-I and OT-II mice by magnetic cell sorting with anti-CD8 beads or anti-CD4 beads respectively (Miltenyi Biotech). Sorted T cells were then seeded in 96-well plates at a concentration of 100.000 cells per well in the presence of either 20.000 or 10.000 DCs (5:1 or 10:1 ratio) that were pretreated with either LPS (activation stimuli) or LPS+PGPC (hyperactivation stimuli) or LPS+Alum (pyroptotic stimuli) and pulsed (or not) with OVA protein or SIINFEKL (SEQ ID NO: 1) peptide at 100 μg/ml for 2 hours. 5 days post culture, supernatants were collected and clarified by centrifugation for short-term storage at −20° C. and cytokine measurement by ELISA.
Intracellular staining: For intracellular cytokine staining, cells were stimulated with 50 ng/ml phorbol 12-myristate 13-acetate (PMA) and 500 ng/ml ionomycin (Sigma-Aldrich) in the presence of GolgiStop (BD) and brefeldin A for 4-5 h. Cells were then washed twice with PBS, and stained with LIVE/DEAD™ Fixable violet or green Dead Cell Stain Kit (Molecular probes) in PBS for 20 min at 4° C. Cells were washed with MACS buffer, and stained for appropriate surface markers for 20 min at 4° C. […] Data were analyzed using FlowJo software.

[4] = test system: FLT3-DCs; assay: FLT3-DC stimulation, cytokine ELISA and LDH release; type: cell-based, mouse; settings: ELISA
Method: FIGS. 14A-B. Oxidized phospholipids induce hyperactive cDC1 and cDC2 cells that display a hypermigratory phenotype. (A) Wild-type or NLRP3^−/− or Casp1/11^−/− BMDCs generated using FLT3L were either left untreated (none) or treated with LPS alone, or Alum alone, or PGPC alone for 24 h, or BMDCs were primed for 3 h with LPS, then treated with indicated stimuli for 21 h. IL-1β and TNFα release was monitored by ELISA. The percentage of cell death was measured by LDH release in the cell supernatants. Means and SDs from three replicates are shown and data are representative of at least three independent experiments. (B) Wild-type BMDCs generated using FLT3L were sorted as cDC1 or cDC2 cells then treated with indicated stimuli as in A. IL-1β and TNFα release was monitored by ELISA. The percentage of cell death was measured by LDH release in the cell supernatants. Means and SDs from three independent experiments done in two different laboratories.
Virtually all studies assessing the state of cell-hyperactivation have focused on the ability of bone marrow derived DC (BMDCs), generated with the cytokine granulocyte-macrophage colony-stimulating factor (GM-CSF), to release IL-1β while retaining viability. […] To examine whether conventional DCs can achieve a hyperactivation state, we used BMDCs generated using the DC hematopoietin Fms-like tyrosine kinase 3 ligand (Flt3L). […]

[5] = OVA immunization, 40 days post-immunization, ex vivo re-stimulation with OVA-loaded BMDCs

Compound | antigen-specific tetramer+IFNγ+ T cell responses [1] | effector and memory T cell generation ([1]; OVA plus LPS plus lipid, in IFA) | IL-1β release [2] | release of IL-10 and IL-13 (TH2-associated cytokines) [3] | T central memory cells (TCM) in dLN ([1]; 40 days post-immunization with OVA) | IFNγ production by re-stimulated T cells [1, 5] | IL-10, IL-4 and IL-13 production by re-stimulated T cells [1, 5] | IL-1β release [4]
CCCCCCCCCCCCCCCC(=O)OC[C@H](COP(=O)([O-])OCC[N+](C)(C)C)OC(=O)CCCC(=O)O [PGPC, [(2R)-2-(4-carboxybutanoyloxy)-3-hexadecanoyloxypropyl] 2-(trimethylazaniumyl)ethyl phosphate] | highest frequency of tetramer+IFNγ+ responses | enhance the magnitude of effector and memory T cell generation | – | – | – | – | – | –
lipopolysaccharide [LPS] | higher IFNγ effector function | – | did not induce the release of IL-1β | large amounts of IL-10, and IL-13 | less abundant | producing IFNγ, IL-10, IL-4 and IL-13 | producing IFNγ, IL-10, IL-4 and IL-13 | did not induce IL-1β release from DCs
